Laboratory results: patent US20200060276A1, “THIAZOLE COMPOUND AND HERBICIDE” (OAT Agrio Co., Ltd., priority 2017, published 2020)

Columns and labels:
Format in all cases: in vivo
[1] = tested on: Echinochloa crus-galli (L.) P. Beauv. var. formosensis Ohwi; assay: Test for Herbicidal Effect in Flooding Treatment (#1), ECHDG; details: flooding treatment at seeding, dose 2 kg/ha, visual observation on day 21
Procedure, shortened: (§1)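 Flooded soil in cups was seeded 24 h after flooding, then treated with compound in acetone diluted with Tween 80-containing water, dropped onto the water surface at 2 kg/ha. After growth in a glasshouse, growth inhibition was scored visually on day 21 on a 0 (<10%) to 5 (≥90% or complete withering) scale.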

Monochoria vaginalis = assay: Test for Herbicidal Effect in Flooding Treatment (#1), MONVA; details: flooding treatment at seeding, dose 2 kg/ha, visual observation on day 21
Procedure, shortened: as §1

Scirpus juncoides = assay: Test for Herbicidal Effect in Flooding Treatment (#1), SCIJU; details: flooding treatment at seeding, dose 2 kg/ha, visual observation on day 21
Procedure, shortened: as §1

Cyperus microiria = assay: Test for Herbicidal Effect in Flooding Treatment (#1), CYMIC; details: flooding treatment at seeding, dose 2 kg/ha, visual observation on day 21
Procedure, shortened: as §1

[2] = tested on: Echinochloa crus-galli (L.) P. Beauv. var. formosensis Ohwi; assay: Test for Herbicidal Effect in Flooding Treatment (#2), ECHDG at 2-2.5 leaf stage; details: flooding treatment at 2-2.5 leaf stage, dose 0.2 kg/ha, visual observation on day 21
Procedure, shortened: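 Flooded muddy soil was seeded with the weed, and at 2–2.5 leaf stage compound in acetone/Tween 80 water was dropped on the water surface at 0.2 kg/ha. Plants were kept in a glasshouse and scored visually on day 21 from 0 (<10% growth inhibition) to 5 (≥90% or complete withering).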

Row | SMILES | ECHDG #1 herbicidal effect (growth inhibition grade) [1] | MONVA #1 herbicidal effect (growth inhibition grade) (Monochoria vaginalis) | SCIJU #1 herbicidal effect (growth inhibition grade) (Scirpus juncoides) | CYMIC #1 herbicidal effect (growth inhibition grade) (Cyperus microiria) | ECHDG (2-2.5L) #2 herbicidal effect (growth inhibition grade) [2]
1 | COc1ccc(CS(=O)(=O)c2ncc(Cl)s2)c(F)c1 [Compound 1C-88] | 5 (Growth inhibition effect is equal to or greater than 90%, or complete withering is achieved) | 5 (Growth inhibition effect is equal to or greater than 90%, or complete withering is achieved) | 5 (Growth inhibition effect is equal to or greater than 90%, or complete withering is achieved) | 5 (Growth inhibition effect is equal to or greater than 90%, or complete withering is achieved) | 4 (Growth inhibition effect is equal to or greater than 70%, and less than 90%)
2 | COc1cc(Cl)c(CS(=O)(=O)c2ncc(Cl)s2)c(Cl)c1 [Compound 1C-91] | 5 (Growth inhibition effect is equal to or greater than 90%, or complete withering is achieved) | 5 (Growth inhibition effect is equal to or greater than 90%, or complete withering is achieved) | 5 (Growth inhibition effect is equal to or greater than 90%, or complete withering is achieved) | 5 (Growth inhibition effect is equal to or greater than 90%, or complete withering is achieved) | 5 (Growth inhibition effect is equal to or greater than 90%, or complete withering is achieved)
3 | CCOc1ccc(CS(=O)(=O)c2ncc(Cl)s2)c(C)c1 [Compound 1C-93] | 5 (Growth inhibition effect is equal to or greater than 90%, or complete withering is achieved) | 5 (Growth inhibition effect is equal to or greater than 90%, or complete withering is achieved) | 5 (Growth inhibition effect is equal to or greater than 90%, or complete withering is achieved) | 5 (Growth inhibition effect is equal to or greater than 90%, or complete withering is achieved) | 5 (Growth inhibition effect is equal to or greater than 90%, or complete withering is achieved)
4 | CCOc1ccc(CS(=O)(=O)c2ncc(Cl)s2)c(C(F)(F)F)c1 [Compound 1C-94] | 5 (Growth inhibition effect is equal to or greater than 90%, or complete withering is achieved) | 5 (Growth inhibition effect is equal to or greater than 90%, or complete withering is achieved) | 5 (Growth inhibition effect is equal to or greater than 90%, or complete withering is achieved) | 5 (Growth inhibition effect is equal to or greater than 90%, or complete withering is achieved) | 5 (Growth inhibition effect is equal to or greater than 90%, or complete withering is achieved)
5 | CCOc1ccc(CS(=O)(=O)c2ncc(Cl)s2)cc1C(F)(F)F [Compound 1C-98] | 5 (Growth inhibition effect is equal to or greater than 90%, or complete withering is achieved) | 5 (Growth inhibition effect is equal to or greater than 90%, or complete withering is achieved) | 5 (Growth inhibition effect is equal to or greater than 90%, or complete withering is achieved) | 5 (Growth inhibition effect is equal to or greater than 90%, or complete withering is achieved) | 1 (Growth inhibition effect is equal to or greater than 10%, and less than 30%)
6 | CCOc1ccc(CS(=O)(=O)c2ncc(Cl)s2)c(F)c1F [Compound 1C-99] | 5 (Growth inhibition effect is equal to or greater than 90%, or complete withering is achieved) | 5 (Growth inhibition effect is equal to or greater than 90%, or complete withering is achieved) | 5 (Growth inhibition effect is equal to or greater than 90%, or complete withering is achieved) | 5 (Growth inhibition effect is equal to or greater than 90%, or complete withering is achieved) | 5 (Growth inhibition effect is equal to or greater than 90%, or complete withering is achieved)
7 | CCOc1ccc(CS(=O)(=O)c2ncc(Cl)s2)c(Cl)c1Cl [Compound 1C-100] | 5 (Growth inhibition effect is equal to or greater than 90%, or complete withering is achieved) | 5 (Growth inhibition effect is equal to or greater than 90%, or complete withering is achieved) | 5 (Growth inhibition effect is equal to or greater than 90%, or complete withering is achieved) | 5 (Growth inhibition effect is equal to or greater than 90%, or complete withering is achieved) | 5 (Growth inhibition effect is equal to or greater than 90%, or complete withering is achieved)
8 | CCOc1c(F)cc(CS(=O)(=O)c2ncc(Cl)s2)cc1F [Compound 1C-104] | 5 (Growth inhibition effect is equal to or greater than 90%, or complete withering is achieved) | 5 (Growth inhibition effect is equal to or greater than 90%, or complete withering is achieved) | 5 (Growth inhibition effect is equal to or greater than 90%, or complete withering is achieved) | 5 (Growth inhibition effect is equal to or greater than 90%, or complete withering is achieved) | 1 (Growth inhibition effect is equal to or greater than 10%, and less than 30%)
9 | CCOc1c(F)cc(CS(=O)(=O)c2ncc(Cl)s2)cc1Cl [Compound 1C-105] | 5 (Growth inhibition effect is equal to or greater than 90%, or complete withering is achieved) | 5 (Growth inhibition effect is equal to or greater than 90%, or complete withering is achieved) | 5 (Growth inhibition effect is equal to or greater than 90%, or complete withering is achieved) | 5 (Growth inhibition effect is equal to or greater than 90%, or complete withering is achieved) | 2 (Growth inhibition effect is equal to or greater than 30%, and less than 50%)
10 | CCCOc1cc(Cl)c(CS(=O)(=O)c2ncc(Cl)s2)c(Cl)c1 [Compound 1C-110] | 5 (Growth inhibition effect is equal to or greater than 90%, or complete withering is achieved) | 5 (Growth inhibition effect is equal to or greater than 90%, or complete withering is achieved) | 5 (Growth inhibition effect is equal to or greater than 90%, or complete withering is achieved) | 5 (Growth inhibition effect is equal to or greater than 90%, or complete withering is achieved) | 5 (Growth inhibition effect is equal to or greater than 90%, or complete withering is achieved)
